Results on nine compounds are retold here after patent publication EP4772649A1, “SCREENING METHOD FOR ODOR-SUPPRESSING MATERIAL” (Takasago International Corporation, priority 2023, dated 2025).

One assay deals with OR11A1. The conditions noted are these: Patent Literature 2; cited from earlier work.
In assay [1] the test system is olfactory receptor OR2AG2. Kind of assay: Luciferase reporter gene assay of olfactory receptor response (Fold Increase) in HEK293T cells expressing OR2AG2. The format is cell-based, human. The note with it: for OR2AG2 response (Fold Increase value): screening of 1,367 odorant substances, 1 µM to 1 mM, Figure 2. How it is done: 0.05 µg of the human olfactory receptor gene expression vector, 0.01 µg of RTP1S vector, 0.01 µg of the firefly luciferase vector pGL4.29 (Promega) containing a cAMP response element promoter, and 0.005 µg of the Renilla luciferase vector pGL4.74 (Promega) containing a thymidine kinase promoter were dissolved in 10 µL of Opti-MEM I (gibco) to prepare a gene solution (for one well). HEK293T cells were seeded at 100 µL per well in a 96-well plate (Biocoat, Corning) at a cell number that would reach confluence after 24 hours. The gene solution was added to each well using lipofection in accordance with the instructions for Lipofectamine 3000 to introduce the gene into the cells, which were then cultured at 37°C in a 5% carbon dioxide atmosphere for 24 hours.
After removing the culture medium, 60 µL of an odorant compound sample prepared in CD293 medium (gibco) (supplemented with 20 µM L-glutamine), at the concentration required for measurement, was added to each well. After stimulation for 3 hours, luciferase activity was measured in accordance with the instructions for the Dual-Luciferase Reporter Assay System (Promega). The response intensity of the olfactory receptor was determined using, as an index, a Fold Increase value obtained by dividing the luciferase activity generated by stimulation with the odorant compound by the luciferase activity generated in a test system free of the odorant compound.
For odorant substances whose response values in the luciferase reporter gene assay were equal to or greater than a predetermined threshold, the primary note from the odor-note information was extracted, and the proportion of each odor note was determined.
To extract the "dust odor" generated when aspartame is combined with certain fruit flavors, as described in Patent Literature 1, which is well-known as a "dust odor" of unknown causative substance, aspartame, trans-2-hexenal, and hexanal were mixed at a 1:1:1 (mass ratio) and gently heated at 60°C for one week, after which the reaction product was extracted with hexane. The present extract was fractionated by medium-pressure HPLC with a silica gel column using hexane and ethyl acetate, then fractionated by medium-pressure HPLC with an ODS column using water and acetonitrile, and further fractionated by high-pressure HPLC with an ODS column using water and acetonitrile, to obtain an odor solution containing "dust odor." This "dust odor" solution with unknown components was added to HEK293T cells expressing the olfactory receptor OR2AG2 gene at final concentrations of 0.05 mass%, 0.1 mass%, and 0.2 mass%, and a luciferase reporter gene assay was performed.

Assay [2] relates to olfactory receptor OR2AG1. The conditions noted are these: Non Patent Literature 6; cited from earlier work.
Assay [3] has as its system olfactory receptor OR2AG2. The assay is described as follows: Antagonist screening: suppression of OR2AG2 response by luciferase reporter gene assay (Normalized Response). The format is cell-based, human. How it is done: The human olfactory receptor OR2AG2 gene expression vector was cloned, and HEK293T cells expressing the olfactory receptor OR2AG2 gene were used to perform an antagonist screening in which the effect of test substances on suppressing OR2AG2 response is measured by a luciferase reporter gene assay. In the luciferase reporter gene assay, each of approximately 500 test substances was individually mixed with each "dust odor" compound sample, and the Fold Increase value obtained in each test with the test substance mixed was calculated as the Normalized Response, assuming that the Fold Increase value obtained in the test without mixing any test substance was 1. The concentrations of the "dust odor" compounds used as samples were set as follows: a) 3-ethyl-2-pentylpyridine, 300 µM; b) 2-methoxy-3-isopropylpyrazine, 500 µM; c) 2-isobutyl-3-methoxypyrazine, 500 µM; and d) 2-sec-butyl-3-methoxypyrazine, 500 µM. […] As examples of antagonists thereby identified for each of the "dust odor" compounds a) to d), a) 2,4-decadienal, b) trans-2-nonenal, c) 2,4-undecadienal, and d) 2,4-decadienal were measured for their concentration-dependent effects in suppressing OR2AG2 response to each sample substance using a luciferase reporter gene assay. The concentrations of the samples were set as follows: a) 3-ethyl-2-pentylpyridine, 300 µM; b) 2-methoxy-3-isopropylpyrazine, 500 µM; c) 2-isobutyl-3-methoxypyrazine, 500 µM; and d) 2-sec-butyl-3-methoxypyrazine, 500 µM. The concentrations of the antagonists for each sample were set at 0 µM, 10 µM, 30 µM, 100 µM, and 300 µM.
As in (2-3) of Example 2, HEK293T cells expressing the olfactory receptor OR2AG2 gene were used to determine the effect of test substances in suppressing OR2AG2 response to an odor solution sample with unknown components containing "dust odor" by antagonist screening using a luciferase reporter gene assay. […] As an example of antagonist, the effect of trans-2-nonenal in suppressing OR2AG2 response to the "dust odor" solution with unknown components was measured by a luciferase reporter gene assay. The final concentration of the sample was 0.1 mass%, and the concentrations of trans-2-nonenal relative to the sample were 0 µM, 1 µM, 2 µM, and 4 µM.

The subject of the next assay is OR2M3. The note with it: Patent Literature 2; cited from earlier work.

Entries after “also recorded” stand apart in the source; their conditions may differ.

For `CC1CCCC2(C)CCCCC12O` (stereo not drawn) [geosmin], the “response of olfactory receptor OR11A1” value in the assay with OR11A1 is “specifically respond”.

Take `CCCCCc1ncccc1CC` [3-ethyl-2-pentylpyridine]: in assay [1], the “OR2AG2 response (Fold Increase value)” value is reported as “trigger OR2AG2 response”.

`COc1nccnc1CC(C)C` [2-isobutyl-3-methoxypyrazine]: the “response of olfactory receptor OR2AG2 (Fold Increase value)” value in assay [1] (1 mM odorant, screening of 396 human olfactory receptors, Figure 1) is “extremely strong response; also recorded: strong and specific response”. Further, the “OR2AG2 response (Fold Increase value)” value in assay [1] is on record as “trigger OR2AG2 response”. Also, the “response of olfactory receptor OR2AG1” value in assay [2] is “responds”.

With `COc1nccnc1C(C)C` [2-methoxy-3-isopropylpyrazine], the “OR2AG2 response (Fold Increase value)” value in assay [1] is reported as “trigger OR2AG2 response”. Further, in assay [2], the “response of olfactory receptor OR2AG1” value is recorded as “responds”.

On to `CCCCCC=CC=CC=O` [2,4-decadienal], for which the “Normalized Response” value is on record as “less than 1” in assay [3] (against 2-sec-butyl-3-methoxypyrazine 500 µM, test substance 1 µM to 1 mM) and “less than 1” in assay [3] (against 3-ethyl-2-pentylpyridine 300 µM, test substance 1 µM to 1 mM).

On to `CCC(C)c1nccnc1OC` (stereo not drawn) [2-sec-butyl-3-methoxypyrazine], for which, in assay [1], the “OR2AG2 response (Fold Increase value)” value is given as “trigger OR2AG2 response”. The “response of olfactory receptor OR2AG1” value in assay [2] is “responds”.

Consider `CCCCCC/C=C/C=O` [trans-2-nonenal], for which the “Normalized Response” value in assay [3] (against 0.1 mass% odor solution with unknown components containing "dust odor") is given as “below 1”; in assay [3] (against 2-methoxy-3-isopropylpyrazine 500 µM, test substance 1 µM to 1 mM), “less than 1”.

Take `CC1(O)CC2CCC1(C)C2(C)C` (stereo not drawn) [2-methylisoborneol]: in the assay on OR2M3, the “response of olfactory receptor OR2M3” value was “specifically respond”.

Regarding `CCCCCCC=CC=CC=O` [2,4-undecadienal], the “Normalized Response” value in assay [3] (against 2-isobutyl-3-methoxypyrazine 500 µM, test substance 1 µM to 1 mM) was “less than 1”.
